According to PMC12677607, “Identification of a Pair of Linear or Cyclic Naturally Inspired Bifunctional Lipopeptide Antibiotics That Overcome Antimicrobial Resistance” (Advanced Science, 2025):
≈ marks a conversion by molar mass, not a printed value. Square brackets hold non-standard residues; d marks the D form. Peptide text beside a SMILES is read from it. * marks the point of attachment. Myristoyl = CCCCCCCCCCCCCC(=O)*; dOrn = NCCC[C@@H](N)C(=O)O; Orn = NCCC[C@H](N)C(=O)O

Legend:
[1] = system: Candida albicans ATCC 64550; assay type: cell-based; conditions: ATCC 64550, 16 h
Protocol: (§1) All MIC assays were performed two independent times (n = 2) in 96‐well plates using a broth micro‐dilution method. The lowest concentration of that inhibited visible microbial growth was recorded as the MIC value.
(§2) For fungal strains, overnight cultures were diluted 2000‐fold in YPD broth. 100 µL of diluted cells was mixed with 100 µL of YPD broth containing each peptide ranging from […] 64 to 0.125 µg mL^−1 at 2‐fold serial dilutions.

Shigella Castellani LXX = assay: MIC assay (broth micro-dilution); assay type: cell-based; conditions: Table S11; LB broth, 37 °C, 16 h, n = 2
Protocol: as §1
(§3) For most of bacterial strains, overnight cultures were diluted 5000‐fold in LB broth. For E. faecium and S. aureus, overnight cultures were diluted 1000‐ and 10000‐fold in LB broth, respectively. 100 µL of diluted cells was mixed with 100 µL of LB broth containing each peptide ranging from 64 to 0.125 µg mL^−1 at 2‐fold serial dilutions.

B. subtilis ATCC 23857 = assay: MIC assay (broth micro-dilution); assay type: cell-based; conditions: Table S11; LB broth, 37 °C, 16 h, n = 2
Protocol: as §1, §3

[2] = system: Candida albicans ATCC 10231; assay: MIC assay (YPD broth); assay type: cell-based
Protocol: as §1, §2

[3] = system: Klebsiella pneumoniae NCTC 5056; assay: microbe, parasite or virus in culture; assay type: cell-based; conditions: NCTC 5056, 16 h
Protocol: as §1, §3

[4] = system: Vibrio alginolyticus XSBZ14; assay: microbe, parasite or virus in culture; assay type: cell-based; conditions: 16 h
Protocol: as §1, §3

[5] = system: Enterococcus faecium 35682; assay: microbe, parasite or virus in culture; assay type: cell-based; conditions: 35682, 16 h
Protocol: as §1, §3

[6] = system: Klebsiella pneumoniae ATCC 13883; assay: microbe, parasite or virus in culture; assay type: cell-based; conditions: ATCC 13883, 16 h
Protocol: as §1, §3

[7] = system: Staphylococcus aureus Newman; assay: microbe, parasite or virus in culture; assay type: cell-based; conditions: Newman, 16 h
Protocol: as §1, §3

Enterococcus faecalis 28 = assay: microbe, parasite or virus in culture; assay type: cell-based; conditions: 28, 16 h
Protocol: as §1, §3

[8] = system: Pseudomonas aeruginosa ATCC 9027; assay: microbe, parasite or virus in culture; assay type: cell-based; conditions: ATCC 9027, 16 h
Protocol: as §1, §3

[9] = system: Salmonella enterica ATCC 14028; assay: microbe, parasite or virus in culture; assay type: cell-based; conditions: ATCC 14028, 16 h
Protocol: as §1, §3

[10] = system: Staphylococcus aureus USA300; assay: microbe, parasite or virus in culture; assay type: cell-based
Protocol: as §1, §3

[11] = system: Salmonella typhimurium LXX; assay: microbe, parasite or virus in culture; assay type: cell-based; conditions: murium LXX, 16 h
Protocol: as §1, §3

[12] = system: Staphylococcus aureus ATCC 25923; assay: microbe, parasite or virus in culture; assay type: cell-based; conditions: ATCC 25923, 16 h
Protocol: as §1, §3

[13] = system: Streptococcus pyogenes ATCC 19615; assay: microbe, parasite or virus in culture; assay type: cell-based
Protocol: as §1, §3

[14] = system: Klebsiella pneumoniae CRKP 5452; assay: microbe, parasite or virus in culture; assay type: cell-based
Protocol: as §1, §3

[15] = system: Acinetobacter baumannii ATCC 19606; assay: microbe, parasite or virus in culture; assay type: cell-based; conditions: ATCC 19606, 16 h
Protocol: as §1, §3

[16] = system: Acinetobacter baumannii ATCC 17978; assay: microbe, parasite or virus in culture; assay type: cell-based; conditions: ATCC 17978, 16 h
Protocol: as §1, §3

[17] = system: Enterococcus faecalis ATCC 29212; assay: microbe, parasite or virus in culture; assay type: cell-based; conditions: ATCC 29212, 16 h
Protocol: as §1, §3

[18] = system: Klebsiella pneumoniae CRKP HS11286; assay: microbe, parasite or virus in culture; assay type: cell-based; conditions: CRKP HS11286, 16 h
Protocol: as §1, §3

[19] = system: Acinetobacter baumannii 1104008; assay: microbe, parasite or virus in culture; assay type: cell-based
Protocol: as §1, §3

[20] = system: Acinetobacter baumannii P53; assay: microbe, parasite or virus in culture; assay type: cell-based; conditions: Table S11; LB broth, 37 °C, 16 h, n = 2
Protocol: as §1, §3

[21] = system: Staphylococcus aureus ATCC 6538; assay: microbe, parasite or virus in culture; assay type: cell-based; conditions: ATCC 6538, 16 h
Protocol: as §1, §3

Enterococcus faecalis 26 = assay: microbe, parasite or virus in culture; assay type: cell-based; conditions: 26, 16 h
Protocol: as §1, §3

[22] = system: Streptococcus mutans ATCC 25175; assay: microbe, parasite or virus in culture; assay type: cell-based; conditions: ATCC 25175, 16 h
Protocol: as §1, §3

[23] = system: Pseudomonas aeruginosa PAO1; assay: microbe, parasite or virus in culture; assay type: cell-based; conditions: PAO1, 16 h
Protocol: as §1, §3

[24] = system: four Gram-negative bacteria, four Gram-positive bacteria, and one fungal pathogen; assay: Initial antimicrobial assay of 17 synAQUs; assay type: cell-based; conditions: MIC up to 64 µg mL^−1, Figure 3a
Protocol: as §1, §3, §2

HeLa cells = assay: Cytotoxicity assay (CCK-8); assay type: cell-based, human; conditions: 48 h
Protocol: The cytotoxicity of each synAQU peptide was assessed using a cell counting kit‐8 (CCK‐8) assay. HeLa cells were first seeded in a 96‐well flat‐bottom microtiter plate with a density of ∼5000 cells per well and incubated in the DMEM medium supplemented with 10% FBS at 37 °C with 5% CO2 for 24 h. […] All cytotoxicity experiments were done in triplicate (n = 3) and repeated two independent times (n = 2).

[25] = design: method as in earlier work; conditions: Figure S20; cited from earlier work
[26] = system: Gram negative and positive bacteria; design: method as in 2 sources, one per row (each row's own in cited_ref): ref 49 (a number printed in a supplementary file, which may have a reference list of its own: not looked up in the article's list) ||| ref 50 (a number printed in a supplementary file, which may have a reference list of its own: not looked up in the article's list); conditions: Figure S20, known paired peptides; cited from earlier work
[27] = design: method as in earlier work; conditions: Figure S20; cited from earlier work; remark: listed apart in the source
Gram negative bacteria = system: Gram negative bacteria; design: method as in 2 sources, one per row (each row's own in cited_ref): ref 27 (a number printed in a supplementary file, which may have a reference list of its own: not looked up in the article's list) ||| ref 26 = [26]; PMID 24281661; doi:10.1038/ja.2013.121; 26 S. Kozuma , Y. Hirota‐Takahata , D. Fukuda , N. Kuraya , M. Nakajima , O , A , J. Antibiot. (Tokyo) 2014 , 67 , 237 . 24281661 10.1038/ja.2013.121; conditions: Figure S20, known paired peptides; cited from earlier work
Text: All 17 synAQUs were initially assayed for antimicrobial activity against four Gram‐negative bacteria, four Gram‐positive bacteria, and one fungal pathogen.

[28] = Table S11, LB broth, 37 °C, 16 h, n = 2

## CCCCCCCCCCCCCC(=O)N[C@@H](CCCN)C(=O)N[C@H](Cc1ccc(O)cc1)C(=O)N[C@@H](C(=O)N[C@@H](C(=O)N[C@H](CCCN)C(=O)N[C@@H](CCCN)C(=O)N[C@@H](C(=O)N[C@H](C(=O)N[C@@H](CC(C)C)C(=O)N[C@H](CCCN)C(=O)N[C@H](C(=O)N[C@@H](C)C(=O)O)[C@@H](C)O)[C@@H](C)CC)C(C)C)[C@H](C)O)C(C)C [synAQU6-L] (Myristoyl-[Orn][dY][dV][dT][dOrn][Orn][dV]IL[dOrn]TA-OH)
[1]
  MIC Candida albicans ATCC 64550: > 64 µg/mL
Shigella Castellani LXX
  MIC Shigella Castellani LXX: > 64 µg/mL
B. subtilis ATCC 23857
  MIC Bacllussubtilis ATCC 23857: 8 µg/mL (≈ 5.17 µM)
[2]; Table S11, YPD broth, 30 °C, 16 h, n = 2
  MIC Candida albicans ATCC 10231: > 64 µg/mL
[3]
  MIC Klebsiella pneumoniae NCTC 5056: > 64 µg/mL
[4]
  MIC Vibrio alginolyticus XSBZ14: > 64 µg/mL
[5]
  MIC Enterococcus faecium 35682: > 64 µg/mL
[6]
  MIC Klebsiella pneumoniae ATCC 13883: > 64 µg/mL
[7]
  MIC Staphylococcus aureus Newman: > 64 µg/mL
Enterococcus faecalis 28
  MIC Enterococcus faecalis 28: > 64 µg/mL
[8]
  MIC Pseudomonas aeruginosa ATCC 9027: 32 µg/mL (≈ 20.7 µM)
[9]
  MIC Salmonella enterica ATCC 14028: > 64 µg/mL
[10]; [28]
  MIC Staphylococcus aureus USA300: > 64 µg/mL
[11]
  MIC Salmonella typhimurium LXX: > 64 µg/mL
[12]
  MIC Staphylococcus aureus ATCC 25923: > 64 µg/mL
[13]; [28]
  MIC Streptococcus pyogenes ATCC 19615: 2 µg/mL (≈ 1.29 µM)
[14]; [28]
  MIC Klebsiella pneumoniae CRKP 5452: > 64 µg/mL
[15]
  MIC Acinetobacter baumannii ATCC 19606: > 64 µg/mL
[16]
  MIC Acinetobacter baumannii ATCC 17978: 32 µg/mL (≈ 20.7 µM)
[17]
  MIC Enterococcus faecalis ATCC 29212: > 64 µg/mL
[18]
  MIC Klebsiella pneumoniae CRKP HS11286: > 64 µg/mL
[19]; [28]
  MIC Acinetobacter baumannii 1104008: > 64 µg/mL
[20]
  MIC Acinetobacter baumannii P53: > 64 µg/mL
[21]
  MIC Staphylococcus aureus ATCC 6538: 32 µg/mL (≈ 20.7 µM)
Enterococcus faecalis 26
  MIC Enterococcus faecalis 26: 4 µg/mL (≈ 2.59 µM)
[22]
  MIC Streptococcus mutans ATCC 25175: 4 µg/mL (≈ 2.59 µM)
[23]
  MIC Pseudomonas aeruginosa PAO1: > 64 µg/mL

## CCCCCCCCCCCCCC(=O)N[C@@H](CCCCN)C(=O)N[C@@H](CCCNC(=N)N)C(=O)N[C@@H](CC(C)C)C(=O)N[C@@H](C)C(=O)N[C@@H](CC(C)C)C(=O)N[C@H](C(=O)N[C@@H](CC(=O)O)C(=O)N[C@@H](CC(=O)O)C(=O)N[C@H](C(=O)N[C@@H](CC(N)=O)C(=O)N[C@H](C(=O)N[C@H](Cc1ccccc1)C(=O)N[C@@H](CC(N)=O)C(=O)O)C(C)C)C(C)C)[C@@H](C)O [synAQU7-L] (Myristoyl-KRLALTDDVNV[dF]N-OH)
[24]
  activity against all nine tested strains: not active
[2]; ATCC 10231, 16 h
  MIC (μg/mL) C. albicans ATCC 10231: > 64 µg/mL
HeLa cells
  MIC (μg/mL) Hela: > 64 µg/mL
[10]; USA300, 16 h
  MIC (μg/mL) S. aureus USA300: > 64 µg/mL
[13]; ATCC 19615, 16 h
  MIC (μg/mL) S. pyogenes ATCC 19615: > 64 µg/mL
[14]; CRKP 5452, 16 h
  MIC (μg/mL) K. pneumoniae CRKP 5452: > 64 µg/mL
[19]; 1104008, 16 h
  MIC (μg/mL) A. baumannii 1104008: > 64 µg/mL

## Bacaucin-1
[25]
  hemolytic activity: No hemolytic activity
[26]
  antibacterial activity: Specific anti-bacterial activity against MR S A
[27]
  cytotoxic activity: No cytotoxic activity

## Laterocidine
Gram negative bacteria
  MIC, anti-Gram negative activity: 2 to 4 µg/mL
